Patent publication US9499550B2 (BRISTOL-MYERS SQUIBB COMPANY, priority 2012, dated 2016)
pEC50: −log10 of the molar value. Where two headings read alike, the source gives them in different places.

What was measured:
[1] = system: HCV genotype 1a (H77 strain) replicon in HUH-7 cells; experiment: HCV replicon luciferase reporter assay, genotype 1a; type: cell-based; conditions: Hepatitis C virus, Huh-7, 72 h, 3 days incubation, read-out: LE_1a (EC50, range)
How it was run: (§1)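 Replicon inhibition for both genotypes was measured as Renilla luciferase signal (EnduRen, 7.5 μM final, 2 h) after 3-day, 37° C exposure of replicon-bearing HUH-7 cells in 4% FCS DMEM, 0.5% DMSO. The 1b construct carries S1179I; the 1a H77 construct carries P1496L and S2204I. Twenty-point, 3-fold dilutions were fitted four-parametrically for EC50, and CC50 was taken from multiplexed Cell Titer-Blue.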

[2] = system: HCV genotype 1b (Con1) replicon in HUH-7 cells; experiment: HCV replicon luciferase reporter assay, genotype 1b; type: cell-based; conditions: Hepatitis C virus, Huh-7, 72 h, 3 days incubation, read-out: LE_1b (EC50, range)
How it was run: as §1

[3] = HCV genotype 1a replicon luciferase assay, range class
[4] = HCV genotype 1b replicon luciferase assay, range class
[5] = HCV genotype 1a replicon luciferase
[6] = HCV genotype 1b replicon luciferase

SMILES | pEC50 [1, 3] | pEC50 [2, 4] | pEC50 [1, 5] | pEC50 [2, 6]
COc1ccc2c(O[C@@H]3C[C@H]4C(=O)N[C@]5(C(=O)NS(=O)(=O)C6(CF)CC6)C[C@H]5/C=C\CC[C@H](C)C[C@@H](C)[C@H](NC(=O)OC(C)(C)C(F)(F)F)C(=O)N4C3)ncc(C(F)(F)F)c2c1 [Compound 1174, 1,1,1-trifluoro-2-methylpropan-2-yl((2R,6S,7R,9S,13aS,14aR,16aS,Z)-14a-(((1-(fluoromethyl)cyclopropyl)sulfonyl)carbamoyl)-2-((6-methoxy-4-(trifluoromethyl)isoquinolin-1-yl)oxy)-7,9-dimethyl-5,16-dioxo-1,2,3,5,6,7,8,9,10,11,13a,14,14a,15,16,16a-hexadecahydrocyclopropa[e]pyrrolo[1,2-a][1,4]diazacyclopentadecin-6-yl)carbamate] | 6.99 to 8.32 | 6.99 to 8.32 |  | 
C[C@@H]1CC/C=C\[C@@H]2C[C@@]2(C(=O)NS(=O)(=O)C2(C)CC2)NC(=O)[C@@H]2C[C@@H](Oc3nc(OCC(F)F)cc4c(Cl)cccc34)CN2C(=O)[C@@H](NC(=O)OC(C)(C)C(F)(F)F)[C@H](C)C1 [Compound 1098, 1,1,1-trifluoro-2-methylpropan-2-yl((2R,6S,7R,9R,13aS,14aR,16aS,Z)-2-((5-chloro-3-(2,2-difluoroethoxyl)isoquinolin-1-yl)oxy)-7,9-dimethyl-14a-(((1-methylcyclopropyl)sulfonyl)carbamoyl)-5,16-dioxo-1,2,3,5,6,7,8,9,10,11,13a,14,14a,15,16,16a-hexadecahydrocyclopropa[e]pyrrolo[1,2-a][1,4]diazacyclopentadecin-6-yl)carbamate] | > 8.26 | > 8.26 |  | 
COc1cc2nc(C(F)(F)F)c(OC)nc2cc1O[C@@H]1C[C@H]2C(=O)N[C@]3(C(=O)NS(=O)(=O)C4(C)CC4)C[C@H]3/C=C\CC[C@@H](C)C[C@@H](C)[C@H](NC(=O)OC(C)(C)C)C(=O)N2C1 [Compound 4351, tert-butyl ((2R,6S,7R,9R,13aS,14aR,16aS,Z)-2-((3,7-dimethoxy-2-(trifluoromethyl)quinoxalin-6-yl)oxy)-7,9-dimethyl-14a-(((1-methylcyclopropyl)sulfonyl)carbamoyl)-5,16-dioxo-1,2,3,5,6,7,8,9,10,11,13a,14,14a,15,16,16a-hexadecahydrocyclopropa[e]pyrrolo[1,2-a][1,4]diazacyclopentadecin-6-yl)carbamate] |  |  | 7.46 to 8.30 | 8.30 to 9.00
COc1ccc2c(O[C@@H]3C[C@H]4C(=O)N[C@]5(C(=O)NS(=O)(=O)C6CC6)C[C@H]5/C=C\CC[C@@H](C)C[C@@H](C)[C@H](NC(=O)OC(C)(C)C(F)(F)F)C(=O)N4C3)nc(-c3ccc(F)cc3)cc2c1 [Compound 3044, 1,1,1-trifluoro-2-methylpropan-2-yl((2R,6S,7R,9R,13aS,14aR,16aS,Z)-14a-((cyclopropylsulfonyl)carbamoyl)-2-((3-(4-fluorophenyl)-6-methoxyisoquinolin-1-yl)oxy)-7,9-dimethyl-5,16-dioxo-1,2,3,5,6,7,8,9,10,11,13a,14,14a,15,16,16a-hexadecahydrocyclopropa[e]pyrrolo[1,2-a][1,4]diazacyclopentadecin-6-yl)carbamate] | > 8.26 | > 8.26 |  | 
COc1ccc2c(O[C@@H]3C[C@H]4C(=O)N[C@]5(C(=O)NS(=O)(=O)C6CC6)C[C@H]5/C=C\CC[C@H](C)C[C@@H](C)[C@H](NC(=O)OC(C)(C)C)C(=O)N4C3)nc(N3CCOCC3)cc2c1 [Compound 3106, tert-butyl ((2R,6S,7R,9S,13aS,14aR,16aS,Z)-14a-((cyclopropylsulfonyl)carbamoyl)-2-((6-methoxy-3-morpholinoisoquinolin-1-yl)oxy)-7,9-dimethyl-5,16-dioxo-1,2,3,5,6,7,8,9,10,11,13a,14,14a,15,16,16a-hexadecahydrocyclopropa[e]pyrrolo[1,2-a][1,4]diazacyclopentadecin-6-yl)carbamate] | 6.99 to 8.32 | 6.99 to 8.32 |  | 
COc1ccc2c(O[C@@H]3C[C@H]4C(=O)N[C@]5(C(=O)NS(=O)(=O)C6(C)CC6)C[C@H]5/C=C\CC[C@H](C)C[C@@H](C)[C@H](NC(=O)OC(C)(C)C(C)(F)F)C(=O)N4C3)nc(-c3ccc4c(c3)OCCO4)cc2c1 [Compound 5236, 3,3-difluoro-2-methylbutan-2-yl((2R,6S,7R,9S,13aS,14aR,16aS,Z)-2-((3-(2,3-dihydrobenzo[b][1,4]dioxin-6-yl)-6-methoxyisoquinolin-1-yl)oxy)-7,9-dimethyl-14a-(((1-methylcyclopropyl)sulfonyl)carbamoyl)-5,16-dioxo-1,2,3,5,6,7,8,9,10,11,13a,14,14a,15,16,16a-hexadecahydrocyclopropa[e]pyrrolo[1,2-a][1,4]diazacyclopentadecin-6-yl)carbamate] |  |  | > 8.26 | > 8.26
C[C@@H]1CC/C=C\[C@@H]2C[C@@]2(C(=O)NS(=O)(=O)C2(C)CC2)NC(=O)[C@@H]2C[C@@H](Oc3nccc4c5c(ccc34)N(C)CCO5)CN2C(=O)[C@@H](NC(=O)OC(C)(C)C)[C@H](C)C1 [Compound 5294, tert-butyl ((2R,6S,7R,9R,13aS,14aR,16aS,Z)-7,9-dimethyl-2-((4-methyl-3,4-dihydro-2H-[1,4]oxazino[2,3-f]isoquinolin-7-yl)oxy)-14a-(((1-methylcyclopropyl)sulfonyl)carbamoyl)-5,16-dioxo-1,2,3,5,6,7,8,9,10,11,13a,14,14a,15,16,16a-hexadecahydrocyclopropa[e]pyrrolo[1,2-a][1,4]diazacyclopentadecin-6-yl)carbamate] |  |  | > 8.26 | > 8.26
[2H]C([2H])([2H])C(OC(=O)N[C@@H]1C(=O)N2C[C@H](Oc3nccc4cc(OC)ccc34)CC2C(=O)N[C@]2(C(=O)NS(=O)(=O)C3(C)CC3)C[C@H]2/C=C\CC[C@H](C)C[C@H]1C)(C([2H])([2H])[2H])C(F)(F)F (stereo partly drawn) [Compound 5174, 1,1,1,3,3,3-hexadeutero-2-(trifluoromethyl)propan-2-yl((2R,6S,7R,9S,13aS,14aR,16aS,Z)-2-((6-methoxyisoquinolin-1-yl)oxy)-7,9-dimethyl-14a-(((1-methylcyclopropyl)sulfonyl)carbamoyl)-5,16-dioxo-1,2,3,5,6,7,8,9,10,11,13a,14,14a,15,16,16a-hexadecahydrocyclopropa[e]pyrrolo[1,2-a][1,4]diazacyclopentadecin-6-yl)carbamate] |  |  | > 8.26 | > 8.26
CCOc1cc2ccnc(O[C@@H]3C[C@H]4C(=O)N[C@]5(C(=O)NS(=O)(=O)C6CC6)C[C@H]5/C=C\CC[C@@H](C)C[C@@H](C)[C@H](NC(=O)OC(C)(C)C(F)(F)F)C(=O)N4C3)c2cc1F [Compound 5401, 1,1,1-trifluoro-2-methylpropan-2-yl((2R,6S,7R,9R,13aS,14aR,16aS,Z)-14a-((cyclopropylsulfonyl)carbamoyl)-2-((6-ethoxy-7-fluoroisoquinolin-1-yl)oxy)-7,9-dimethyl-5,16-dioxo-1,2,3,5,6,7,8,9,10,11,13a,14,14a,15,16,16a-hexadecahydrocyclopropa[e]pyrrolo[1,2-a][1,4]diazacyclopentadecin-6-yl)carbamate] |  |  | 8.30 to 9.00 | 9.30 to 10.00
COc1ccc2c(O[C@@H]3C[C@H]4C(=O)N[C@]5(C(=O)NS(=O)(=O)C6CC6)C[C@H]5/C=C\CC[C@H](C)C[C@@H](C)[C@H](NC(=O)OC(C)(C)C)C(=O)N4C3)nc(-c3ccc(OC)c(Cl)c3)cc2c1 [Compound 3047, tert-butyl ((2R,6S,7R,9S,13aS,14aR,16aS,Z)-2-((3-(3-chloro-4-methoxyphenyl)-6-methoxyisoquinolin-1-yl)oxy)-14a-((cyclopropylsulfonyl)carbamoyl)-7,9-dimethyl-5,16-dioxo-1,2,3,5,6,7,8,9,10,11,13a,14,14a,15,16,16a-hexadecahydrocyclopropa[e]pyrrolo[1,2-a][1,4]diazacyclopentadecin-6-yl)carbamate] | 6.99 to 8.32 | > 8.26 |  | 
CCOc1cc2ccnc(O[C@@H]3C[C@H]4C(=O)N[C@]5(C(=O)NS(=O)(=O)C6(CF)CC6)C[C@H]5/C=C\CC[C@@H](C)C[C@@H](C)[C@H](NC(=O)OC(C)(C)C(F)(F)F)C(=O)N4C3)c2cc1F [Compound 5413, 1,1,1-trifluoro-2-methylpropan-2-yl((2R,6S,7R,9R,13aS,14aR,16aS,Z)-2-((6-ethoxy-7-fluoroisoquinolin-1-yl)oxy)-14a-(((1-(fluoromethyl)cyclopropyl)sulfonyl)carbamoyl)-7,9-dimethyl-5,16-dioxo-1,2,3,5,6,7,8,9,10,11,13a,14,14a,15,16,16a-hexadecahydrocyclopropa[e]pyrrolo[1,2-a][1,4]diazacyclopentadecin-6-yl)carbamate] |  |  | 8.30 to 9.00 | 9.00 to 9.29
COc1cc2c(OC)cnc(O[C@@H]3C[C@H]4C(=O)N[C@]5(C(=O)NS(=O)(=O)C6(CF)CC6)C[C@H]5/C=C\CC[C@@H](C)C[C@@H](C)[C@H](NC(=O)c5ccc(F)cc5F)C(=O)N4C3)c2cc1F [Compound 4118, (2R,6S,7R,9R,13aS,14aR,16aS,Z)-6-(2,4-difluorobenzamido)-2-(7-fluoro-4,6-dimethoxyisoquinolin-1-yloxy)-N-(1-(fluoromethyl)cyclopropylsulfonyl)-7,9-dimethyl-5,16-dioxo-1,2,3,5,6,7,8,9,10,11,13a,14,14a,15,16,16a-hexadecahydrocyclopropa[e]pyrrolo[1,2-a][1,4]diazacyclopentadecine-14a-carboxamide] |  |  | > 8.26 | > 8.26
